Series [1] in a line: Stability in human liver microsomes assessed as hepatic extraction ratio at 10 uM by LC-MS/MS analysis. The series is classed as ADME, Microsome. As to conditions: read-out: ERH.
Series [2] in a line: Stability in rat liver microsomes assessed as hepatic extraction ratio at 10 uM by LC-MS/MS analysis. The series is classed as ADME, Microsome. As to conditions: read-out: ERH. In general terms: Liver microsomes are vesicles of endoplasmic reticulum, rich in cytochrome P450 enzymes.
The species entered for series [3] is Rattus norvegicus. The series can be described thus: Inhibition of rat P-gp ATPase in jejuna mucosa membrane assessed as remaining enzyme activity at 10 to 40 uM using ATP as substrate preincubated for 5 mins followed by substrate addition and measured after 30 mins. Format: cell membranes.
The nature of series [4]: n-Octanol-water partition coefficient, log P of compound incubated for 4 hrs by LC-MS/MS analysis. Format: physicochemical.
Series [5] is described as follows: Ratio of drug level in blood to plasma (unknown origin) at 500 nM incubated for 30 mins by LC-MS/MS analysis. The series is classed as ADME, cell-free. Conditions: blood and plasma.
A short description of series [6]: Metabolic stability in human liver microsomes assessed as half life at 10 uM by LC-MS/MS analysis. Format: ADME, Microsome.
Series [7] can be described thus: Metabolic stability in human liver microsomes assessed as remaining compound at 10 uM measured at 30 mins by LC-MS/MS analysis relative to control. As to conditions: read-out: Stability. Format: ADME, Microsome.
Series [8] is described as follows: Metabolic stability in rat liver microsomes assessed as remaining compound at 10 uM measured at 45 mins by LC-MS/MS analysis relative to control. As to conditions: read-out: Stability. The series is classed as ADME, Microsome.
Series [9] in a line: Metabolic stability in rat liver microsomes assessed as half life at 10 uM by LC-MS/MS analysis. Format: ADME, Microsome.
Series [10] in a line: Ratio of drug level in blood to plasma (unknown origin) at 500 nM incubated for 60 mins by LC-MS/MS analysis. The series is classed as ADME, cell-free. Conditions: blood and plasma.
Series [11] is filed under the species Rattus norvegicus. As to the kind of experiment: Inhibition of rat P-gp ATPase in jejuna mucosa membrane at 10 to 40 uM using ATP as substrate preincubated for 5 mins followed by substrate addition and measured after 30 mins relative to control. Format: cell membranes.
A short description of series [12]: Ratio of drug level in blood to plasma (unknown origin) at 500 nM incubated for 15 mins by LC-MS/MS analysis. Format: ADME, cell-free. As to conditions: blood and plasma.
Series [13] is described as follows: Metabolic stability in rat liver microsomes assessed as remaining compound at 10 uM measured at 30 mins by LC-MS/MS analysis relative to control. Conditions: read-out: Stability. Format: ADME, Microsome.
A further series relates to A549. The series can be described thus: Cytotoxicity against human A549 cells assessed as reduction in cell viability by MTT assay. The series is classed as functional, cell-based.
Series [14] is described as follows: Ratio of drug level in blood to plasma (unknown origin) at 500 nM incubated for 45 mins by LC-MS/MS analysis. Format: ADME, cell-free. As to conditions: blood and plasma.
Series [15] can be described thus: Protein binding in plasma (unknown origin) incubated for 4 hrs by red equilibrium dialysis based LC-MS/MS analysis. Conditions: read-out: PPB. Format: ADME, cell-free. In general terms: In equilibrium dialysis free small molecules cross a membrane that holds back macromolecules.
Series [16] is described as follows: Ratio of drug level in blood to plasma (unknown origin) at 500 nM measured immediately by LC-MS/MS analysis. Format: ADME, cell-free. As to conditions: blood and plasma.
A short description of series [17]: Intrinsic clearance in human liver at 10 uM by LC-MS/MS analysis. The series is classed as ADME, tissue-based. Conditions: read-out: CLH.
Series [18] is described as follows: Permeability coefficient of compound incubated for 5 hrs by LC-MS/MS analysis based PAMPA assay. The series is classed as ADME. (In general: In PAMPA a lipid-coated filter parts donor from acceptor wells.)
A short description of series [19]: Solubility of compound in water incubated for 5 hrs by LC-MS/MS analysis. The series is classed as physicochemical.
Series [20] is described as follows: Metabolic stability in human liver microsomes assessed as remaining compound at 10 uM measured at 45 mins by LC-MS/MS analysis relative to control. The series is classed as ADME, Microsome. As to conditions: read-out: Stability.
Series [21] can be described thus: Intrinsic clearance in human microsomes at 10 uM by LC-MS/MS analysis. The series is classed as ADME, Microsome.
A short description of series [22]: Metabolic stability in rat liver microsomes assessed as remaining compound at 10 uM measured at 15 mins by LC-MS/MS analysis relative to control. Format: ADME, Microsome. Conditions: read-out: Stability.
Series [23] is described as follows: n-Octanol-PBS buffer distribution coefficient, log D of compound incubated for 4 hrs by LC-MS/MS analysis. Format: physicochemical.
Series [24] can be described thus: Intrinsic clearance in rat microsome at 10 uM by LC-MS/MS analysis. The series is classed as ADME. Conditions: microsomes.
A short description of series [25]: Intrinsic clearance in rat liver at 10 uM by LC-MS/MS analysis. Format: ADME, tissue-based. As to conditions: read-out: CLH.
Series [26] can be described thus: Metabolic stability in human liver microsomes assessed as remaining compound at 10 uM measured at 15 mins by LC-MS/MS analysis relative to control. Format: ADME, Microsome. Conditions: 0.25 h.
For series [27], the species on record is Rattus norvegicus. The series can be described thus: Inhibition of rat P-gp ATPase in jejuna mucosa membrane assessed as remaining enzyme activity at 20 uM using ATP as substrate preincubated for 5 mins followed by substrate addition and measured after 30 mins. The series is classed as cell membranes.

≈ marks a conversion by molar mass, not a printed value.

The logP is the decadic logarithm of the partition coefficient of the neutral form, usually between octanol and water. One may read the half-life as the time needed for the level to fall by half in the phase considered. Broadly, the inhibition is the change of the read-out against control, counted positive when it falls. In general, IC50 refers to the concentration at which inhibition is half-maximal. As usually defined, the solubility is the dissolved amount per volume that the medium holds. Low values mean little dissolved substance, high ones much dissolved substance. The term logD denotes lipophilicity at a set pH, counting ionised and neutral species. The low end stands for a more hydrophilic compound, the high end for a more lipophilic compound.

Consider `CCOC(=O)C1=C(C)NC(=O)NC1c1cc2c(cc1OC)OC(C)(CC)C=C2Cl` (stereo not drawn), for which the hepatic extraction ratio at 10 µM in series [1] amounted to 0.6; in series [2], 0.41. Further, the Activity in the series filed under Rattus norvegicus [3] amounted to 6.7 µM/min/µL. In series [4], this compound returned a logP at 4 h of 4.06. The blood plasma ratio at 0.5 h, 0.5 µM in series [5] came to 1.25. In series [6], the t1/2 is 1.38 h. For the same compound, the results for the remaining at 0.5 h, 10 µM in series [7] and in series [13] were 73% and 76%, respectively. Further, the remaining at 0.75 h, 10 µM in series [8] worked out at 76%; in series [20] it was 73%. The half-life at 10 µM in [9] stood at 1.18 h. Further, the blood plasma ratio at 1 h, 0.5 µM in [10] was 1.4. The same compound displayed an inhibition in the series listed under Rattus norvegicus [11] of 1 to 12%. Besides, the blood plasma ratio at 0.25 h, 0.5 µM in series [12] was 1.11. Further, the IC50 in the series on A549 was 139 nM. Further, in [14], the blood plasma ratio at 0.75 h, 0.5 µM turned out to be 1.35. Further, the fraction unbound at 4 h in [15] is less than 0.1. The blood plasma ratio at 0 min, 0.5 µM in [16] was 0.9. The figures for the CLint scaled at 10 µM in [17] and in series [25] were 32.3 mL/min/kg and 34 mL/min/kg, respectively. The “log Pe” value in [18] was “Dose-dependent effect”. This compound also gave a solubility at 5 h in [19] of 6.8 µg/mL (≈ 16.2 µM). Further, the CLint was 20.6 µL/min/mg in [21] and 19 µL/min/mg in [24]. For the same compound, in series [22], the remaining at 0.25 h, 10 µM is 76%. Also, in series [23], the logD at 4 h stood at 0.08. The Stability in series [26] is 73%.

`O[C@@H](COc1cccc2ncccc12)CN1CCN([C@@H]2c3ccccc3[C@@H]3[C@H](c4ccccc42)C3(F)F)CC1`: the Activity in the series filed under Rattus norvegicus [27] stood at 2.8 µM/min/µL.

For `CC(C)NCC(O)COc1ccc(CC(N)=O)cc1` (stereo not drawn) [ATENOLOL], the blood plasma ratio at 0.5 h, 0.5 µM in [5] was found to be 1.2. In addition, the blood plasma ratio at 1 h, 0.5 µM in series [10] was 1. The blood plasma ratio at 0.25 h, 0.5 µM in series [12] turned out to be 1.17. For the same compound, the blood plasma ratio at 0.75 h, 0.5 µM in series [14] was 1.15. Further, in [16], the blood plasma ratio at 0 min, 0.5 µM turned out to be 1.3.

For the origin of these results see ChEMBL document CHEMBL4359934, “Green chemistry appended synthesis, metabolic stability and pharmacokinetic assessment of medicinally important chromene dihydropyrimidinones” (Bioorg Med Chem Lett, 2019).
